Results taken from patent US8524860B2, “Peptides with capacity to bind to scurfin and applications” (Proyecto de Biomedicina CIMA, S.L., priority 2007, dated 2013).
No end group written: not given here.

Legend:
CT26 colon cancer line = test: CT26 colon cancer tumor model, antitumor vaccination with peptide AH1; type: in vivo, BALB/c mice; conditions: for protection from tumor: n=11
Excerpt: The tumor model used for this assay has been a model based on the CT26 colon cancer line, described in a previous work of the laboratory of the inventors (Casares et al, 2001. Eur J Immunol 31:1780-9; Casares et al., 2003. J Immunol 171:5931-9), since the inventors had previously shown that, in this model, Treg lymphocytes have an immunosuppressive effect favoring tumor growth (Casares et al., 2003, mentioned above).
The synthetic peptide (SEQ ID NO: 8) was used as a vaccine antigen, which peptide contains a cytotoxic T determinant for the CT26 line (Huang, A. Y. et al, Proc Natl Acad Sci USA, 1996. 93:9730-9735) and the immunization of which delays the tumor growth to a certain extent, without eliminating it due to the presence of Treg lymphocytes (Casares et al., 2003, mentioned above).
Briefly, groups of 6 six-week old BALB/c mice (Charles River) were immunized with peptide AH1 (SEQ ID NO: 8) as described in Casares et al., 2001, mentioned above, in the presence or absence of peptide P60 (SEQ ID NO: 1). Ten days after the immunization, the mice were subcutaneously injected with 5×10^5 CT26 cells, and the tumor evolution was measured.

scurfin = biological target: T1, scurfin (Homo sapiens, UniProt Q9BZS1); test: Surface plasmon resonance (SPR) analysis of peptide binding to immobilized scurfin; conditions: peptide 10 μM, scurfin immobilized on CM5 chip, compared with irrelevant control peptide (SEQ ID NO: 6)
T1 construct: GST (glutathione-S-transferase); made in house; host or cells: Escherichia coli BL21
T1 sequence (Q9BZS1 1-431): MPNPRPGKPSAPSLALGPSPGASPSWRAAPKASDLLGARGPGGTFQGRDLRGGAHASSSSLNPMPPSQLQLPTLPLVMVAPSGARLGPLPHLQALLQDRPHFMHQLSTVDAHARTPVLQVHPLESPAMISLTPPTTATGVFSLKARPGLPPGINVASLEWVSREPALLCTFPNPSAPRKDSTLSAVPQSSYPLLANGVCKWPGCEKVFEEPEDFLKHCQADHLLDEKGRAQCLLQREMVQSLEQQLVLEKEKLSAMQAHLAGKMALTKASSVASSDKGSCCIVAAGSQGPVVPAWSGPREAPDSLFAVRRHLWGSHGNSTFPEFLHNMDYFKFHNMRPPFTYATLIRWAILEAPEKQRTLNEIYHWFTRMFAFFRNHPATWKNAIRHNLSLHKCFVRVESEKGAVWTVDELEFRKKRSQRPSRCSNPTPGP
Excerpt: The capacity of peptide P60 (SEQ ID NO: 1) to bind to scurfin was verified by means of the biomolecular interaction surface plasmon resonance (SPR) using the Biosensor BIAcore X (BIAcore, AB, Uppsala, Sweden). Scurfin, produced in E. coli and purified by affinity using GSTrap columns (Amersham, Pharmacia), was covalently immobilized on the surface of the flow cell 2 (FC2) of a CM5 chip (Sensor Chip CM Ref 116Br-1000-14, BIAcore, General Electrics), as described in De Crescenzo et al. (JBC 2001, Vol 276; 29632-29643). Flow cell 1 (FC1), on the surface of which scurfin is not immobilized, was used as a reference reflow cell. The solutions of each peptide (10 μM) were injected three times in a 10 mM Hepes buffer, 150 mM NaCl, pH 7.4 at a flow of 30 μl/min. The binding curves were processed by means of subtracting the response in FC1 from that obtained in FC2. The response in equilibrium was compared between peptide P60 (SEQ ID NO: 1) and an irrelevant control peptide of the same size (length), specifically, the peptide the amino acid sequence of which is shown in SEQ ID NO: 6, corresponding to amino acids 123-137 of the human CD81 receptor. Each response was multiplied by a mass correction factor: MW(P60)/MW(P), wherein MW(P60) is the molecular weight of peptide P60 (SEQ ID NO: 1) and MW(P) is that of the control peptide.
For the purpose of evaluating the importance of the amino acids placed at the amino-terminal and carboxyl-terminal ends of peptide P60 (SEQ ID NO: 1), truncated forms of said peptide P60 (SEQ ID NO: 1) were chemically synthesized as has been mentioned above, and the capacity of said truncated forms to bind to scurfin was assayed by means of SPR, according to the protocol previously described in section 1.3.
Likewise, the capacity of said peptides (SEQ ID NO: 2, SEQ ID NO: 3 and SEQ ID NO: 4) to bind to scurfin was assayed by means of SPR in the previously mentioned conditions.

human Treg lymphocytes [1] = test: MLR of PBMCs from 2 donors with human Treg lymphocytes, tritiated thymidine incorporation; type: cell-based; conditions: 100 μM, 3 days of culture
Experimental: To carry out the assay based on a mixed lymphocyte reaction (MLR), such as that shown in Example 2, peripheral blood mononuclear cells (PBMCs) from 2 donors were mixed together with CD4+CD25+ Treg cells (Treg lymphocytes) purified from one of them, by means of using a commercial kit (Ref 130091072, Miltenyi Biotec, Bergisch Gladbach, Germany) following the instructions of the manufacturer. After the purification, the cells were analyzed by flow cytometry, a purity of approximately 90% being obtained in all the assays. This MLR assay was carried out incubating 10^5 PBMC cells from each donor and 2×10^4 Treg lymphocytes in the presence or absence of peptide P60 (SEQ ID NO: 1), for the purpose of assaying its capacity to block the inhibitory effect of human Treg lymphocytes. After 3 days of culture, 0.5 μCi/well of tritiated thymidine (Amersham, Pharmacia) and after 16 hours, the plates were harvested using a harvester (Filtermate 96 harvester; Packard Instrument, Meriden, Conn.) and the radioactivity incorporated to the cell DNA was counted (as a measurement of the cell proliferation) by means of a scintillation counter (Topcount; Packard Instrument).

[2] = tested on: inhibition of the activation of transcription factor NF-κB by scurfin; test: NF-κB luciferase reporter in 293 cells transfected with pcDNA-Foxp3; type: cell-based; conditions: 100 μM, 24 hours
Excerpt: It has been described that the presence of scurfin can inhibit the activation of the transcription factor NF-kB in 293 cells (Betelli et al, Proc Natl Acad Sci USA. 2005 102:5138-43). Based on this work, the effect of the addition of peptide P60 (SEQ ID NO: 1) to a culture of 293 cells transfected with a plasmid expressing the foxp3 gene, kindly provided by Dr Oukka and previously described (Betelli et al, Proc Natl Acad Sci USA. 2005 102:5138-43) and to a culture of 293 cells transfected with a control plasmid together with a plasmid expressing luciferase under a promoter inducible by NF-κB (Ref 631904, pNF-kB-Luc, Clontech) has been studied. The 293 cells were transfected by means of using lipofectamine with plasmid pNF-kB-Luc expressing luciferase under a promotor inducible by transcription factor NF-kB, in the presence or absence of plasmid pcDNA, pcDNA-Foxp3 and peptide P60 (SEQ ID NO: 1) (100 μM). After 24 hours of culture, the cells were harvested and the luciferase activity in the cell extracts was measured by means of using a suitable kit (Promega, Maddison, USA) and the luminometer (Orion Microplate luminometer, Berthold detection systems, Germany).

murine Treg lymphocytes [3] = test: Co-culture of OT-1 transgenic mouse effector lymphocytes with dendritic cells, SIINFEKL antigen and Treg lymphocytes, IFN-γ ELISA; type: cell-based; conditions: 100 μM, SIINFEKL 10 μg/ml, OT-1 effector lymphocytes
Experimental: Thirdly, the effect of peptide P60 (SEQ ID NO: 1) was measured in an assay based on co-culturing splenocytes from OT-1 transgenic mice (the T lymphocytes of which have a specific T cell receptor for the peptide SIINFEKL (SEQ ID NO: 7) of ovalbumin, which were kindly provided by Dr Melero, CIMA Pamplona) with Treg lymphocytes in the presence of antigen (SEQ ID NO: 7) and in the presence or absence of Treg lymphocytes. […] The effector lymphocytes isolated from OT-1 transgenic mice (10^5 cells/well) were co-cultured with dendritic cells from C57BL/6 mice and the peptide SIINFEKL (SEQ ID NO: 7) (10 μg/ml), in the presence or absence of 2×10^4 BALB/cregulatory T cells and in the presence or absence of peptide P60 (SEQ ID NO: 1) (100 μM).

human Treg lymphocytes [4] = test: IFN-γ production by human CD4 effector T lymphocytes stimulated with anti-CD3/CD28 microspheres with human Treg lymphocytes; type: cell-based; conditions: 100 μM, anti-CD3/CD28 stimulus, 48 hours, ELISA
Experimental: This assay is based on the measurement of the production of IFN-γ in a culture of 10^5 human CD4 effector T lymphocytes cultured with microspheres containing anti-CD3 and anti-CD28 antibodies adhered to their surface (Dynabeads® CD3/CD28; Ref 111.31, Dynal), in the presence or absence of 2×10^4 human Treg lymphocytes (purified as indicated above). This assay was carried out in the presence or absence of peptide P60 (SEQ ID NO: 1) to assess its inhibitory effect of Treg lymphocytes. After 48 hours of culture, the presence of IFN-γ in the culture supernatants was measured by means of a commercial ELISA (Ref 555138, Pharmingen).

murine Treg lymphocytes [5] = test: Murine MLR (BALB/c effector lymphocytes with C57BL/6 dendritic cells) with BALB/c Treg lymphocytes, tritiated thymidine incorporation; type: cell-based, mouse; conditions: 100 μM
Experimental: Secondly, mixed lymphocyte reaction (MLR) assays were carried out. The effector lymphocytes isolated from BALB/c mice (10^5 cells/well) were co-cultured with purified dendritic cells from C57BL/6 mice (Charles River), in the presence or absence of BALB/c Treg lymphocytes and in the presence or absence of peptide P60 (SEQ ID NO: 1) (100 μM). The measurement of the cell proliferation was carreid out by means of a conventional tritiated thymidine incorporation assay as has been previously described.

[6] = tested on: Karpas 299 human cell line; test: Mixed lymphocyte reaction (MLR) of PBMCs from 2 donors with Karpas 299 cells, IFN-γ ELISA; type: cell-based
Experimental: After verifying and confirming its profile, in vitro assays were carried out using the Karpas 299 human cell line (ACC-31, DSMZ, Germany), derived from a human lymphoma with a regulatory T cell [Treg lymphocytes] profile (Wolke et al Int J Mol. Med. 2006 February; 17(2):275-8), the need to isolate CD4+CD25+ cells is thus prevented.
To evaluate the effect of peptide P60 (SEQ ID NO: 1) on the immunosuppressive activity of the Karpas 299 cell line, a “mixed lymphocyte reaction” (MLR) assay was carried out using peripheral blood mononuclear cells (PBMCs) from 2 donors in the presence or absence of the Karpas 299 cell line. This assay (MLR) is based on co-culturing lymphocytes of a different origin, with different histocompatibilities, which will recognize one another as foreign. This reaction makes lymphocytes proliferate, secreting cytokines. For this assay, 100,000 cells of each donor (positive MLR control) were cultured in a 96-well plate, alone or in the presence of 10,000 cells of the Karpas 299 cell line.
After 48 hours, the supernatants were extracted to measure interferon-gamma (IFN-γ) by means of a commercial ELISA (Ref 555138, Pharmingen, San Diego, Calif., United States). […] In this assay of inhibition of the MLR due to the presence of the Karpas 299 cell line, the capacity of peptide P60 (SEQ ID NO: 1) to restore the production of IFN-γ due to the MLR was analyzed.

murine Treg lymphocytes [7] = test: Activation of BALB/c mouse splenocytes with anti-CD3 antibodies with murine Treg lymphocytes, IFN-γ; type: cell-based; conditions: 100 μM
Experimental: Firstly, assays of activation of BALB/c mouse splenocytes (Charles River) in the presence of anti-CD3 antibodies (Ref 553057, BD Biosciences) were carried out.

AH1: synthetic peptide used as vaccine antigen, contains a cytotoxic T determinant for the CT26 line (SPSYVYHQF) [reference compound]
protection from tumor (CT26 colon cancer line; mice immunized with AH1 alone): 0%

RDFQSFRKMWPFF [T(1-13), truncated form of P60, amino acids 1-13 of P60]
capacity to bind to scurfin (SPR signal) (scurfin): does not destroy the capacity of the peptide to bind to scurfin

RDFQSFRKMWPFFA [T(1-14), truncated form of P60, amino acids 1-14 of P60]
capacity to bind to scurfin (SPR signal) (scurfin): does not destroy the capacity of the peptide to bind to scurfin

RDFQSFRKMWPFFAM [P60]
restoration of the MLR (cell proliferation) inhibited by human Treg lymphocytes (human Treg lymphocytes [1]): capable of partly restoring the MLR | expression of luciferase (NF-κB reporter) inhibited by scurfin [2]: restores the expression of luciferase | inhibition of the immunosuppressive effect of Treg lymphocytes on production of IFN-γ by antigen-specific effector cells (murine Treg lymphocytes [3]): capable of inhibiting the immunosuppressive effect of Treg lymphocytes on the production of IFN-γ | restoration of the production of IFN-γ inhibited by human Treg lymphocytes (human Treg lymphocytes [4]): partly restoring the production of IFN-γ | protection from tumor (CT26 colon cancer line; mice immunized with peptide AH1 and treated with P60 50 nm/mouse i.p. days 0, 2, 4, 6, 8, 10): 82% | mice that developed a palpable tumor (CT26 colon cancer line; of the 11 mice immunized with peptide AH1 and treated with P60): 2 | protection from tumor (CT26 colon cancer line; peptide P60 alone, non-immunized mice): 10% | inhibition of the immunosuppressive effect of Treg lymphocytes on proliferation of effector cells in response to an MLR (murine Treg lymphocytes [5]): capable of inhibiting the immunosuppressive effect of Treg lymphocytes on the proliferation of effector cells | restoration of the production of IFN-γ due to the MLR inhibited by Karpas 299 cells ([6]; 100 μM, 48 hours, ELISA): capable of partly recovering the production of IFN-γ | inhibitory activity on the immunosuppressive action of Treg cells among the 25 peptides selected ([6]; several in vitro assays (Example 2)): highest inhibitory activity | inhibition of the immunosuppressive effect of Treg lymphocytes on production of IFN-γ in response to anti-CD3 (murine Treg lymphocytes [7]): capable of inhibiting the immunosuppressive effect of Treg lymphocytes on the production of IFN-γ | capacity to bind to scurfin (SPR signal) (scurfin): positive signal

T(2-15): truncated form of P60, amino acids 2-15 of P60 (DFQSFRKMWPFFAM)
capacity to bind to scurfin (SPR signal) (scurfin): inhibits the capacity of the peptide to bind to scurfin
